Results taken from patent publication US8604075B2, “Methods and compositions for improving cognitive function” (The Johns Hopkins University, priority 2008, dated 2013).

Columns and labels:
[1] = tested on: Age-Impaired (AI) Long-Evans rats; experiment: Morris Water Maze (MWM) retention trial, spatial memory of aged-impaired rats; format: in vivo, rat; settings: retention trial 24 hours after last training trial
Experimental: FIG. 2 depicts the effects of administering levetiracetam on the spatial memory retention of six aged-impaired rats (AI) in a Morris Water Maze (MWM) test. Three treatment conditions were employed: vehicle control, levetiracetam (5 mg/kg/day) and levetiracetam (10 mg/kg/day). The AI rats were trained for two consecutive days, with a one-time treatment prior to the training trials per day. 24 hours later, the AI rats were tested. The time the AI rats, 24 hours after treatment with the different conditions and two days of training, spent swimming in the target quadrant or the target annulus in a memory retention trial is used as a measure of spatial memory retention. The target quadrant refers to the quadrant of the maze (which is a circular pool) where the escape platform is placed during the training trials. The target annulus refers to the exact location of the escape platform during the training trials.
The MWM apparatus consists of a large, circular pool (diameter 1.83 m; height, 0.58 m) filled with water (27° C.) that is made opaque through the addition of non-toxic pigment or some other substance. In the typical “hidden platform” version of the test, rats are trained to find a camouflaged white escape platform (height, 34.5 cm) that is positioned in the center of one quadrant of the maze about 1.0 cm below the water surface. This platform can be retracted to the bottom of the tank or raised to its normal position from outside the maze during behavioral testing. The location of the platform remains constant from trial to trial. […] The behavior of a rat in the pool is recorded by a camera that is suspended 2.5 m above the center of the pool. […]
The MWM protocol is optimized for sensitivity to the effects of aging on cognition and for measures of reliable individual differences within the aged population of out-bred Long-Evans rats (Gallagher et al. Behav. Neurosci. 107:618-626, (1993)). […] At the completion of the protocol using the hidden platform, rats are assessed for cue learning using the visible platform. […]

aged-impaired (AI) rats = experiment: Radial Arm Maze (RAM) task with one-hour delay, spatial memory retention of aged-impaired rats; format: in vivo, rat; settings: 30-40 minutes before trial, ten AI rats
Experimental: FIG. 3 depicts the effects of administering levetiracetam on the spatial memory retention of ten aged-impaired rats (AI) in an eight-arm Radial Arm Maze (RAM) test. Six treatment conditions were employed: vehicle control, levetiracetam (1.25 mg/kg/day), levetiracetam (2.5 mg/kg/day), levetiracetam (5 mg/kg/day), levetiracetam (10 mg/kg/day) and levetiracetam (20 mg/kg/day). In the RAM task used, there was a one-hour delay between presentation of a subset of arms (5 arms available and 3 arms blocked) and completion of the eight-arm win-shift task (eight arms available). Rats were pre-treated 30-40 minutes before daily trials with a one-time drug/control treatment. The number of errors made by the rats after the delay was used as a measure of spatial memory retention. Errors were defined as instances when rats entered an arm from which food had already been retrieved in the pre-delay component of the trial or when rats re-visited an arm in the post-delay session that had already been visited. […]
The effects of levetiracetam on the spatial memory retention of aged-impaired (AI) rats were assessed in a Radial Arm Maze (RAM) behavioral task using vehicle control and five different dosage levels of levetiracetam (1.25 mg/kg/day, 2.5 mg/kg/day, 5 mg/kg/day, 10 mg/kg/day and 20 mg/kg/day). […]

[2] = tested on: memory-impaired aged rats; settings: chronic subcutaneous administration, cited from earlier work
[3] = 100 mg/kg/day, chronic subcutaneous administration; cited from earlier work

SMILES: CC[C@@H](C(N)=O)N1CCCC1=O [levetiracetam, (2S)-2-(2-oxopyrrolidin-1-yl) butanamide]
- time spent in the target quadrant, performance compared with vehicle ([1]; 5 mg/kg/day i.p.): did not significantly improve
- time spent in the target annulus ([1]; 10 mg/kg/day i.p.): effectivness of the 10 mg/kg/day levetiracetam treatment was also seen
- time spent in the target quadrant ([1]; 10 mg/kg/day i.p., vehicle approximately 25%): approximately 35 % of total swimming time
- average no. of errors ± standard error of the mean (SEM) (aged-impaired (AI) rats; 5 mg/kg/day i.p., vehicle 2.00±0.42, p=0.057): 0.75±0.32
- average no. of errors ± SEM (aged-impaired (AI) rats; 10 mg/kg/day i.p., vehicle 2.00±0.42, p=0.042): 0.80±0.27

SMILES: CCCC(CCC)C(=O)O [sodium valproate, 2-propylpentanoate]
- treatment of age-related cognitive impairment ([2]; 50 mg/kg/day): not effective
- performance in a memory test ([2]; 100 mg/kg/day): significantly improved
- blood total valproate level [3]: 10 μg/ml plasma
